The results in this text go back to patent US20040116420A1 (priority 2001, published 2004).

One series has as its system HCMV. Briefly: Antiviral activity 2, plaque formation in HEL cells. Format: cell-based, CMV. The conditions noted are these: Human betaherpesvirus 5, 336 h, 14 days. How it is done: (§1) An Assay Method for Antiviral Activity 2
(§2) The HEL cells were sowed on a 48-well plate and then cultured overnight. The culture supernatant was removed, and 100 μl of 2% FBS-DMEM containing 40 Plaque-forming units of HSV-1, HSV-2, VZV, or CMV was added. A viral solution Was removed 1 hour later, and 500 μl of 2% FBS-DMEM containing 0.5% methylcellulose comprising 50, 25, 12.5, 6.3, 3.2, or 1.6 μM of the test compound was added. In this case, a substance to which 2% FBS-DMEM containing 0.5% methylcellulose not comprising any test compound had been added was designated as a control. In the case of HSV-1, HSV-2, or VZV, incubation was carried out in the presence of 5% CO2 at 37° C. for 3 days. In the case of CMV, incubation was carried out under the same conditions for 14 days. After they were immobilized on formalin and stained with bromophenol blue, the amount of plaque formed was counted, and the ratio of plaque formation of the drug-containing reaction system relative to the control was determined. The concentration of the drug with which the ratio of plaque formation reaches 50% was calculated and determined to be IC50. Concerning HSV-1, an aciclovir-resistant thymidine kinase variant and a DNA polymerase variant were examined in addition to a general aciclovir-sensitive strain.

A further series deals with Vero cells. The series can be described thus: Cytotoxicity, Vero cells, Alamar Blue. It counts as cell-based. The conditions noted are these: 25 μM, 20 hours. The procedure, abridged: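 Living-cell ratio versus untreated control was read by Alamar Blue absorbance after about 6 h of dye incubation. Before that, Vero cells had received 25 μM test compound in 2% FBS-DMEM for 20 hours at 37 °C under 5% CO2.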

The subject of series [1] is HSV1 Thimidine kinase variant. The series can be described thus: Antiviral activity 2, plaque formation in HEL cells. Conditions: Human alphaherpesvirus 1, HEL, 72 h, read-out: Antiviral activity: IC50, HSV1 Thimidine kinase variant. Format: cell-based, HSV-1. On the procedure: as §1, §2
In series [2] the test system is HSV1 DNA polymerase variant. The description is as above. Conditions: Human alphaherpesvirus 1, HEL, 72 h, read-out: Antiviral activity: IC50, HSV1 DNA polymerase variant. Format: cell-based, HSV-1. On the procedure: as §1, §2
A further series relates to HSV1 Sensitive strain. The series is described as above. Format: cell-based, HSV-1. Conditions: Human alphaherpesvirus 1, 72 h, 3 days. On the procedure:
as §1, §2

The next series relates to HSV-1. The series can be described thus: Antiviral activity, HSV-1 in Vero cells, plaque method. Format: cell-based. Conditions: Human alphaherpesvirus 1, 20 hours, 90% inhibition of plaque formation. The procedure, abridged: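 This is a virus-yield read-out. The culture medium was frozen at −80° C and thawed, and the plaques it formed were counted. It came from Vero monolayers infected with 50,000 pfu HSV-1 and then exposed to the compound for 20 h at 37° C. EC90 is the concentration inhibiting 90% of plaque formation relative to the untreated infected control.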

A further series deals with HSV2. The series can be described thus: Antiviral activity 2, plaque formation in HEL cells. Format: cell-based, HSV-2. The conditions noted are these: Human alphaherpesvirus 2, 72 h, 3 days. How it is done: as §1, §2
The next series can be described thus: Human plasma stability. Format: in vitro ADME. How it is done: An Assay Method for Human Plasma Stability Human plasma was thawed, 200 μl each thereof was placed in each cell of a 96-well plate immediately thereafter, and 4 μl of solution of each test compound in 1 mM DMF was added thereto. A microplate reader for fluorescence absorption was used to assay changes in fluorescence, and half life was determined based on the changes.

Another series concerns VZV. Briefly: Antiviral activity 2, plaque formation in HEL cells. Format: cell-based. The conditions noted are these: Human alphaherpesvirus 3, 72 h, 3 days. On the procedure: as §1, §2
A further series concerns the target T1, HSV-1 protease (Human herpesvirus 1, UniProt P10210).
T1 construct: 6xHis (N); made in house; host or cells: baculovirus expression system
Briefly: Enzymatic assay for HSV-1 protease (assembly) inhibitor, fluorescence polarization. Format: biochemical. The conditions noted are these: read-out: HSV-1 Enzyme inhibition IC50. The procedure, abridged: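 Fluorescence polarization read-out: after avidin stop, cleavage of a biotinylated DTAF-labelled release-site peptide by recombinant N-His6 HSV-1 protease was compared with no-inhibitor wells. Enzyme and compound were preincubated 30 min, then substrate reacted 60 min, all at room temperature, pH 7.4 citrate buffer with TCEP.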

T1 sequence (P10210 1-247): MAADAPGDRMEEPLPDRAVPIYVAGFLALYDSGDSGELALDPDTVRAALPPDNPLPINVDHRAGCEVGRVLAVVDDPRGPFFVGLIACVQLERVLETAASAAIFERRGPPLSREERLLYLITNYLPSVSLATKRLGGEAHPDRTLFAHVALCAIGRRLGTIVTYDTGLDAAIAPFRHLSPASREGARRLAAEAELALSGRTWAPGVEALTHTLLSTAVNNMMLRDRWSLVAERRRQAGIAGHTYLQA

As for `Cc1c(NC(=O)OC(C)(C)C)ccc2nc(N(C)[C@@H](Cc3ccccc3)C(=O)NCc3ccccn3)oc(=O)c12` [Compound No.22, [5-Methyl-2-(methyl-{2-phenyl-1S-[(pyridin-2-ylmethyl)-carbamoyl]-ethyl}-amino)-4-oxo-4H-benzo[d][1,3]oxazin-6-yl]-carbamic Acid Tert-Butyl Ester], the IC50 is over 25 µM in the series on HCMV; 16.3 µM in series [1]; 14.3 µM in [2]; 9.5 µM in the series with HSV1 Sensitive strain; 16.6 µM in the series with HSV2; over 25 µM in the series with VZV. Besides, the 50% inhibitory concentration (IC50) at HSV-1 protease was 1.8 µM. The “Cell viability (% of control)” value in the series on Vero cells is 66.5%. Also, in the series on HSV-1, the 90% effect level (EC90) was put at 9 µM. Also, in “Human plasma stability”, the half-life at 19.6 μM was 3.02 h.
Turning to `Cc1c(NC(=O)OC(C)(C)C)ccc2nc(NC3(C(=O)N(C)CCc4ccncc4)CCCCC3)oc(=O)c12` [Compound No.129, (5-Methyl-2-{1-[methyl-(2-pyridin-4-yl-ethyl)-carbamoyl]-cyclohexylamino}-4-oxo-4H-benzo[d][1,3]oxazin-6-yl)-carbamic acid tert-butyl ester], the IC50 in the series with HCMV was over 5 µM; in series [1], 17.7 µM; in series [2], 8.7 µM; in the series with HSV1 Sensitive strain, 5.8 µM; with HSV2, 10.3 µM; in the series on VZV, over 5 µM. Moreover, the IC50 at HSV-1 protease was found to be 1.1 µM. In the series with HSV-1, the EC90 worked out at 5.8 µM. Besides, the half-life at 19.6 μM in the series “Human plasma stability” was over 15 h.
As for `Cc1c(NC(=O)OC(C)(C)C)ccc2nc(N[C@@H](CCc3ccccc3)C(=O)N(C)Cc3ccccn3)oc(=O)c12` [Compound No.23, {5-Methyl-2-[1S-(methyl-pyridin-2-ylmethyl-carbamoyl)-3-phenyl-propylamino]-4-oxo-4H-benzo[d][1,3]oxazin-6-yl}-carbamic Acid Tert-Butyl Ester], the “Cell viability (% of control)” value with Vero cells worked out at 52.0%. In the series on HSV-1, this compound came in with a concentration for an effect of 90% (EC90) of under 3.2 µM. In “Human plasma stability”, this compound came in with a half-life at 19.6 μM of 9.92 h. Besides, the IC50 at HSV-1 protease stood at 0.7 µM.
The matching figures for `Cc1c(NC(=O)OC(C)(C)C)ccc2nc(N[C@@H](C)C(=O)N(C)CCc3cccnc3)oc(=O)c12` [Compound No.65, (5-Methyl-2-{1S-[methyl-(2-pyridin-3-yl-ethyl)-carbamoyl]-ethylamino}-4-oxo-4H-benzo[d][1,3]oxazin-6-yl)-carbamic acid tert-butyl ester]: 104.0%, 7.6 µM, 3.02 h and 0.2 µM.
The like results for `Cc1c(NC(=O)OC(C)(C)C)ccc2nc(N[C@@H](C)C(=O)N(C)Cc3ccccn3)oc(=O)c12` [Compound No.58, {5-Methyl-2-[1S-(methyl-pyridin-2-ylmethyl-carbamoyl)-ethylamino]-4-oxo-4H-benzo[d][1,3]oxazin-6-yl}-carbamic acid tert-butyl ester] were, in that order, 105.0%, 10.8 µM, 8.85 h and 1.7 µM.
Consider `Cc1c(NC(=O)OC(C)(C)C)ccc2nc(N[C@@H](Cc3ccccc3)C(=O)N(C)CCc3ccccn3)oc(=O)c12` [Compound No.21, (5-Methyl-2-{1-[methyl-1S-(2-pyridin-2-yl-ethyl)-carbamoyl]-2-phenyl-ethylamino}-4-oxo-4H-benzo[d][1,3]oxazin-6-yl)-carbamic Acid Tert-Butyl Ester], for which the IC50 is over 5 µM in the series with HCMV; 16.1 µM in series [1]; 6.9 µM in series [2]; 6.1 µM in the series with HSV1 Sensitive strain; 10.7 µM in the series with HSV2; 6.4 µM with VZV. Also, on HSV-1 protease, the IC50 stood at 1.5 µM. For the same compound, the “Cell viability (% of control)” value in the series with Vero cells stood at 53.2%. This compound also showed an EC90 in the series with HSV-1 of 5.9 µM. In “Human plasma stability”, this compound yielded a half-life at 19.6 μM of 1.78 h.
